Reference: US8785499B2 (priority 2009, dated 2014)

What was measured:
[1] = molecular target: ecNadD (Escherichia coli (strain K12), UniProt P0A752); experiment: biochemical; format: biochemical; conditions: for inhibition at 100 µM: read-out: INHIBITION (%) E. coli; for IC50: IC50 ecNadD
[2] = molecular target: baNadD (Bacillus anthracis, UniProt C3L5T6); experiment: biochemical; format: biochemical; conditions: for inhibition at 50 µM: read-out: INHIBITION (%) B. anthracis; for IC50: IC50 baNadD
Sequence of baNadD (C3L5T6 whole entry, looked up): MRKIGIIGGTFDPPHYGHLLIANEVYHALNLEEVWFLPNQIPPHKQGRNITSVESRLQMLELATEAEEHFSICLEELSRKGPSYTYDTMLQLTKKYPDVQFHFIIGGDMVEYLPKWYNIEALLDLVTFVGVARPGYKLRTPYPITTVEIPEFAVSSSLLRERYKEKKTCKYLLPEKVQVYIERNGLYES

Structure (SMILES) | […]. coli [1] | […]. anthracis [2] | other results
S=C(N/N=C/c1ccccc1Cl)Nc1cc(Cl)ccc1Cl [compound 002] | 76% | 85% | –
O=C(O)c1ccc(Nc2nc(-c3ccc(Cl)cc3)cs2)cc1 [compound 030] | 22% | 28% | –
O=c1[nH]c(SCc2nc3ccccc3[nH]2)nc2ccccc12 [compound 026] | 23% | 0% | –
O=S(=O)(Nc1ccc(Cl)cc1)c1ccc(Cl)s1 [compound 297] | 0% | 0% | –
NC(=O)c1ccc(NC(=O)COc2ccc3ccccc3c2)cc1 [compound 097] | 10% | 63% | –
NS(=O)(=O)c1ccc(CCNC(=O)c2cccc(Cl)c2)cc1 [compound 048] | 16% | 14% | –
NS(=O)(=O)c1ccc(CCNC(=O)c2ccc([NH2+][O-])cc2)cc1 [compound 213] | 0% | 54% | –
Cc1ccc(S(=O)(=O)/N=C/c2cccnc2)cc1 [compound 092] | 10% | 0% | –
O=C(O)C(Cc1ccccc1)NS(=O)(=O)c1ccc2c(c1)OCCO2 (stereo not shown) [compound 246] | 0% | 0% | –
COC(=O)c1cc(O)c(C(=O)Nc2ccc(Cl)c(Cl)c2)s1 [compound 052] | 16% | 24% | –
O=C(Nc1ncccn1)c1sc2ccccc2c1Cl [compound 011] | 31% | 0% | –
O=C(O)c1ccc(CSCc2ccccc2)o1 [compound 270] | 0% | 21% | –
C/C(=N/NC(=O)CCC(=O)Nc1ccc(Br)cc1)c1ccc(Br)cc1 [01_18] | – | – | inhibition at 100 µM [1]: 38%; inhibition at 50 µM [2]: 49%
Oc1c(Br)cc(Cl)cc1/C=N/c1ccccn1 [compound 044] | 17% | 0% | –
O=c1cc(O)c2sc(Nc3cccc(Cl)c3)nc2[nH]1 [compound 047] | 17% | 0% | –
NS(=O)(=O)c1ccc(NC(=O)CSc2ccc3ccccc3n2)cc1 [compound 073] | 12% | 0% | –
NS(=O)(=O)c1ccc2nc(NC(=O)CCc3ccccc3)sc2c1 [compound 140] | 6% | 0% | –
Nc1c(C(=O)Nc2cc(F)ccc2F)sc2nc(-c3cccs3)ccc12 [03_18] | – | – | INHIBITION (%) E. coli [1]: 41% 35; IC50 [1]: 35 µM; INHIBITION (%) B. anthracis [2]: 71% 14; IC50 [2]: 14 µM
O=C1Nc2ccccc2/C1=C/Nc1ccc(F)cc1F [15_22] | – | – | inhibition at 100 µM [1]: 10%; inhibition at 50 µM [2]: 28%
Cc1ccc(N/C=C2\C(=O)Nc3ccccc32)cc1C [15_14] | – | – | IC50 [1]: 88 µM; inhibition at 100 µM [1]: 12%; IC50 [2]: 74 µM; inhibition at 50 µM [2]: 70%
O=C(O)[C@@H]1CSC(c2ccc(Cl)cc2Cl)N1 (stereo partly shown) [compound 041] | 19% | 39% | –
NS(=O)(=O)c1ccc(NC(=O)CSc2ncn(-c3ccccc3)n2)cc1 [compound 205] | 0% | 40% | –
Nc1c(C(=O)Nc2ccc(F)c(F)c2)sc2nc(-c3cccs3)ccc12 [03_14] | – | – | IC50 [1]: 117 µM; inhibition at 100 µM [1]: 46%; IC50 [2]: 38 µM; inhibition at 50 µM [2]: 92%
CC(/C=N/NC(=O)CCC(=O)Nc1ccc(Br)cc1)c1ccc2ccccc2c1 (stereo not shown) [01_05] | – | – | IC50 [1]: 88 µM; inhibition at 100 µM [1]: 78%; inhibition at 50 µM [2]: 76%
O=S(=O)(NCCCc1ccccc1)c1cccc2nsnc12 [compound 142] | 6% | 0% | –
Nc1c(C(=O)Nc2cc(F)ccc2F)sc2nc(-c3cccs3)ccc12 [03_01] | – | – | INHIBITION (%) E. coli [1]: 100% 25; IC50 [1]: 25 µM; INHIBITION (%) B. anthracis [2]: 100% 25; IC50 [2]: 25 µM

Structure (SMILES) | […]. coli [1] | […]. anthracis [2] | other results
CC(=O)c1ccc(NS(=O)(=O)c2ccc(N)cc2)cc1 [compound 283] | 0% | 0% | –
O=C1Nc2ccccc2/C1=C/Nc1ccccc1Br [15_26] | – | – | inhibition at 100 µM [1]: 8%; inhibition at 50 µM [2]: 8%
CC(N/C=C1\C(=O)Nc2ccccc21)c1ccccc1 (stereo not shown) [15_39] | – | – | inhibition at 100 µM [1]: 3%; inhibition at 50 µM [2]: 18%
O=C1Nc2ccccc2/C1=C/Nc1ccc(Br)cc1 [15_09] | – | – | IC50 [1]: > 200 µM; inhibition at 100 µM [1]: 13%; IC50 [2]: 111 µM; inhibition at 50 µM [2]: 60%
O=C1Nc2ccccc2/C1=C/NCc1ccccc1 [15_16] | – | – | inhibition at 100 µM [1]: 11%; inhibition at 50 µM [2]: 6%
c1ccc2[nH]c(SCc3cn4ccsc4n3)nc2c1 [compound 143] | 6% | 2% | –
Nc1nc(-c2cccc(Br)c2)cs1 [compound 232] | 0% | 12% | –
Cc1cc(N/C=C2\N=C(c3ccc(Cl)cc3)OC2=O)no1 [compound 066] | 13% | 80% | –
Nc1nnc(SCC(=O)Nc2nccs2)n1-c1ccccc1 [compound 058] | 15% | 0% | –
CCOc1cc(/C=N/O)cc(I)c1O [compound 045] | 17% | 0% | –
NS(=O)(=O)c1ccc(CCNC(=S)Nc2ccc(S(N)(=O)=O)cc2)cc1 [compound 095] | 10% | 0% | –
NS(=O)(=O)c1ccc(/N=C/c2ccc(Br)cc2)cc1 [compound 214] | 0% | 0% | –
COc1ccc(S(=O)(=O)Nc2ccc(CC#N)cc2)cc1C [compound 170] | 3% | 0% | –
Cc1cc(Nc2cccc(C(=O)O)c2)n2ncnc2n1 [compound 014] | 30% | 0% | –
Nc1c(C(=O)Nc2ccc(F)cc2F)sc2nc(-c3cccs3)ccc12 [03_07] | – | – | IC50 [1]: 44 µM; inhibition at 100 µM [1]: 69%; IC50 [2]: 18 µM; inhibition at 50 µM [2]: 83%
O=c1/c(=C/c2ccc(O)cc2)sc2nc3cc(Br)cnc3n12 [compound 111] | 9% | 6% | –
CS(=O)(=O)NCCOc1ccc(S(=O)(=O)NCc2ccccc2)cc1 [compound 179] | 3% | 0% | –
Cc1cccc(C(=O)NNC(=O)/C=C\C(=O)O)c1 [compound 120] | 8% | 0% | –
O=C(O)c1cc(NC(=O)c2ccc(Cl)cc2Cl)cc(C(=O)O)c1 [compound 209] | 0% | 0% | –
NC(N)=NS(=O)(=O)c1ccc(NC(=O)c2cccc([N+](=O)[O-])c2)cc1 [compound 268] | 0% | 0% | –
N=C(N)N/N=C/c1ccc([N+](=O)[O-])cc1 [compound 078] | 12% | 0% | –
CN(C)c1ccc(N/C=C2\C(=O)Nc3ccccc32)cc1 [15_03] | – | – | inhibition at 100 µM [1]: 19%; inhibition at 50 µM [2]: 27%
Cc1noc(C)c1S(=O)(=O)Nc1ccc(Br)cc1 [compound 265] | 0% | 4% | –
C=CCNC(=O)c1cc(-c2ccc(Br)cc2)on1 [compound 301] | 0% | 0% | –
CN1C(=O)S/C(=C\c2ccc(OCC(=O)O)c(I)c2)C1=O [compound 069] | 13% | 7% | –
